Results taken from PubChem BioAssay AID1963840 (Molecular Pharmacology Branch, DTP, NCI, 2024).
Where “and” joins values, the source holds several entries; their conditions need not be identical. Equal values may be shown once.

Test system: 695427-040-R-J1-PDC complex spheroid viability
Assay: Anticancer human tumor 695427-040-R-J1-PDC patient-derived colon adenocarcinoma cell line growth inhibition [POLQ]
Details: for viability, T/C: stronger effect = lower value
Experimental: Multicellular complex tumor spheroid response to Polymerase (POL) inhibitors (novobiocin, ART-558, RP6685) in combination with a variety of drugs and investigational agents in selected tumor cell lines
The POL inhibitors (novobiocin, ART-558, and RP6685) were evaluated both individually and in combination with standard of care and investigational anticancer small molecules within a complex spheroid model of solid tumors. . Complex spheroids include a stromal component modeled by human endothelial cells (HUVEC) and fibroblasts modeled by human mesenchymal stem cells (MSCs). The concentration ranges selected for each drug and investigational agent were based upon clinically achievable concentrations if the clinical Cmax of the agent was known.
Compounds. The drugs and investigational agents: novobiocin (NSC847541), ART-558 (NSC835418), RP-6685 (NSC848927), peposertib (NSC802822), ceralasertib (NSC780249), elimusertib (NSC800525), camonsertib (NSC841442), AZD-1390 (NSC803789), olaparib (NSC753686), talazoparib (NSC767125), rucaparib (NSC756644), sotorasib (NSC818433), MRTX-1133 (NSC836407), SN-38 (NSC673596), topotecan (NSC609699), epotoside (NSC141540), doxorubicin (NSC123127), gemcitabine (NSC613327), 5-fluorouracil (NSC19893), paclitaxel (NSC125973), vemurafenib (NSC761431), MSA-2 (NSC828583), SN-011 (NSC837082), adavosertib (NSC754352), prexasertib (NSC758257), carboplatin (NSC241240) and oxaliplatin (NSC266046), were obtained from the National Cancer Institute (NCI) Developmental Therapeutics Program Chemical Repository (21). The FDA-approved anticancer drug set is available from the Developmental Therapeutics Program at https://dtp.cancer.gov/organization/dscb/obtaining/. […] The stock solutions were prepared in dimethyl sulfoxide (DMSO, Sigma-Aldrich, St. Louis, MO, cat. D2650), except for the platinum compounds which were prepared in saline (Quality Biological, Gaithersburg, MD, cat. 114-055-101), at 800-fold the tested concentration and stored at -70 degrees C prior to their use. All drugs and investigational agents were tested over a range starting from a high concentration at or near the clinical Cmax and decreasing in half-log increments. If the clinical Cmax for an agent had not been determined, the highest concentration tested was 10 microM, except for SN-38, which was tested at a high concentration of 1 microM.
Cell Culture. All cells were maintained in an incubator at 37 degrees C and 5% CO2 with 95% humidity. The PDC lines were cultured according to standard operating procedures established by the NCI PDMR (https://pdmr.cancer.gov). Table 3 of the manuscript, lists the cell lines along with the number of the three cell types plated to form the mct-spheroids and media for tumor cell growth. After thawing, all PDC lines, except 997537-175-T-J1-PDC and 415267-285-R-J2-PDC, were cultured in Matrigel-coated flasks prepared with a working solution of 1X Ham's F-12 nutrient mix, without supplementation (Thermo Fisher Scientific, cat. 11765054), 100 U/mL penicillin-streptomycin (Thermo Fisher Scientific, cat. 15140122), and 2.5% Matrigel (Corning Inc., Corning, NY, cat. 354248) for the first three passages. The two PDC lines 997537-175-T-J1-PDC and 415267-285-R-J2-PDC were cultured on uncoated flasks. The 857933-349-R-J2-PDC line was cultured in 6C/Colon 1B media containing advanced DMEM/F-12 (Thermo Fisher Scientific, cat. 12634028), 10 mM HEPES (Thermo Fisher Scientific, cat. 15630080), 1X GlutaMAX supplement (Thermo Fisher Scientific, cat. 35050061), 0.1 mg/mL primocin (InvivoGen, San Diego, CA, cat. ant-pm-2), 10% defined fetal bovine serum, heat inactivated (HyClone Laboratories Inc., Logan, UT, cat. SH30070.03HI), 50% L-WRN conditioned media (ATCC, cat. CRL-3276), 1.25 mM N-Acetyl-L-cysteine (Sigma-Aldrich, cat. A9165), 10 mM nicotinamide (Sigma-Aldrich, cat. N0636), 1X B-27 supplement (Thermo Fisher Scientific, cat. 17504044), 1X N-2 supplement (Thermo Fisher Scientific, cat. […]
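Also: spheroids exposed to compounds for seven days.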
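For viability, T/C in this document: 100% = DMSO vehicle control viability.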

## CC1COCCN1c1cc(C2(S(C)(=N)=O)CC2)nc(-c2ccnc3[nH]ccc23)n1 (stereo not drawn)
Compound 0.0316 µM
  viability, T/C: 102% and 96% and 100%
Compound 0.1 µM
  viability, T/C: 96% and 102% and 100%
Compound 0.316 µM
  viability, T/C: 100% and 94.3% and 98.1%
Compound 1 µM
  viability, T/C: 103% and 91.7% and 102%
Compound 3.16 µM
  viability, T/C: 96.4% and 98.4% and 99.3%
Compound 10 µM
  viability, T/C: 80.5% and 96.6% and 81.2%
Curve of compound
  IC50: > 10 µM

## COc1cccc2c1C(=O)c1c(O)c3c(c(O)c1C2=O)CC(O)(C(=O)CO)CC3OC1CC(N)C(O)C(C)O1 (stereo not drawn)
Compound 0.0316 µM
  viability, T/C: 87.5% and 98.1% and 92.7%
Compound 0.1 µM
  viability, T/C: 96.2% and 87.2% and 90.7%
Compound 0.316 µM
  viability, T/C: 95% and 96.7% and 101%
Compound 1 µM
  viability, T/C: 71.2% and 89.7% and 82.5%
Compound 3.16 µM
  viability, T/C: 66% and 74% and 68.7%
Compound 10 µM
  viability, T/C: 57.1% and 69.8% and 53.8%
Curve of compound
  IC50: > 10 µM

## COc1ccc([C@@H](O)c2cc(-c3ncnc4cc(N5CCOCC5)ccc34)c(F)cc2Cl)nn1
Compound 0.0316 µM
  viability, T/C: 108% and 103% (2×)
Compound 0.1 µM
  viability, T/C: 91.8% and 86.1% and 99.5%
Compound 0.316 µM
  viability, T/C: 92.8% and 93.3% and 97.7%
Compound 1 µM
  viability, T/C: 91.9% and 94.2% and 96.2%
Compound 3.16 µM
  viability, T/C: 80.1% and 82.6% and 85%
Compound 10 µM
  viability, T/C: 50% and 59% and 56.5%
Curve of compound
  IC50: > 10 µM

## C=CCn1c(=O)c2cnc(Nc3ccc(N4CCN(C)CC4)cc3)nc2n1-c1cccc(C(C)(C)O)n1 + Cc1cccc(N(C)C(=O)C2C(O)CCN2c2nc(C)cc(C(F)(F)F)c2C#N)c1
Curve of first compound, second compound 0.0316 µM
  IC50: > 1 µM
Curve of first compound, second compound 0.1 µM
  IC50: > 1 µM
Curve of first compound, second compound 0.316 µM
  IC50: > 1 µM
Curve of first compound, second compound 1 µM
  IC50: > 1 µM
Curve of first compound, second compound 3.16 µM
  IC50: > 1 µM
Curve of first compound, second compound 10 µM
  IC50: > 1 µM
Second compound 0.0316 µM, first compound 0.00316 µM
  viability, T/C: 100%
Second compound 0.0316 µM, first compound 0.01 µM
  viability, T/C: 99.4%
Second compound 0.0316 µM, first compound 0.0316 µM
  viability, T/C: 101%
Second compound 0.0316 µM, first compound 0.1 µM
  viability, T/C: 92.6%
Second compound 0.0316 µM, first compound 0.316 µM
  viability, T/C: 94.3%
Second compound 0.0316 µM, first compound 1 µM
  viability, T/C: 83.6%
Second compound 0.1 µM, first compound 0.00316 µM
  viability, T/C: 115%
Second compound 0.1 µM, first compound 0.01 µM
  viability, T/C: 108%
Second compound 0.1 µM, first compound 0.0316 µM
  viability, T/C: 93.2%
Second compound 0.1 µM, first compound 0.1 µM
  viability, T/C: 103%
Second compound 0.1 µM, first compound 0.316 µM
  viability, T/C: 93.4%
Second compound 0.1 µM, first compound 1 µM
  viability, T/C: 69.5%
Second compound 0.316 µM, first compound 0.00316 µM
  viability, T/C: 105%
Second compound 0.316 µM, first compound 0.01 µM
  viability, T/C: 121%
Second compound 0.316 µM, first compound 0.0316 µM
  viability, T/C: 95.5%
Second compound 0.316 µM, first compound 0.1 µM
  viability, T/C: 92.5%
Second compound 0.316 µM, first compound 0.316 µM
  viability, T/C: 107%
Second compound 0.316 µM, first compound 1 µM
  viability, T/C: 90.1%
Second compound 1 µM, first compound 0.00316 µM
  viability, T/C: 109%
Second compound 1 µM, first compound 0.01 µM
  viability, T/C: 95.9%
Second compound 1 µM, first compound 0.0316 µM
  viability, T/C: 102%
Second compound 1 µM, first compound 0.1 µM
  viability, T/C: 100%
Second compound 1 µM, first compound 0.316 µM
  viability, T/C: 98.1%
Second compound 1 µM, first compound 1 µM
  viability, T/C: 64.2%
Second compound 3.16 µM, first compound 0.00316 µM
  viability, T/C: 91.8%
Second compound 3.16 µM, first compound 0.01 µM
  viability, T/C: 90.8%
Second compound 3.16 µM, first compound 0.0316 µM
  viability, T/C: 88.9%
Second compound 3.16 µM, first compound 0.1 µM
  viability, T/C: 89.3%
Second compound 3.16 µM, first compound 0.316 µM
  viability, T/C: 91.4%
Second compound 3.16 µM, first compound 1 µM
  viability, T/C: 69.5%
Second compound 10 µM, first compound 0.00316 µM
  viability, T/C: 93.9%
Second compound 10 µM, first compound 0.01 µM
  viability, T/C: 89.3%
Second compound 10 µM, first compound 0.0316 µM
  viability, T/C: 87.7%
Second compound 10 µM, first compound 0.1 µM
  viability, T/C: 92.7%
Second compound 10 µM, first compound 0.316 µM
  viability, T/C: 91.4%
Second compound 10 µM, first compound 1 µM
  viability, T/C: 67.9%
